ChEMBL document CHEMBL6109176, “Drug-like Antagonists of P2Y Receptor Subtypes: An Update” (J Med Chem, 2025)
Values belong to the molecule of their own block, whether it stands above or below them.

Tests used:
[1] = Antagonist activity at P2Y14R (unknown origin); set-up: species or system Homo sapiens
P2Y purinoceptor 12 [2] = target: T1, P2Y purinoceptor 12 (Homo sapiens, UniProt Q9H244); test: Inhibition of P2Y12R (unknown origin) by HTS assay
P2Y purinoceptor 1 [3] = target: T2, P2Y purinoceptor 1 (Homo sapiens, UniProt P47900); test: inhibition of P2Y1R (unknown origin)
P2Y purinoceptor 12 [4] = target: T1, P2Y purinoceptor 12; test: Antagonist activity at P2Y12R (unknown origin)
P2Y purinoceptor 12 [5] = target: T1, P2Y purinoceptor 12; test: Binding affinity to human P2Y12R expressed in CHO cells assessed as dissociation constant SPR assay
[6] = Inhibition of platelet aggregation in human platelet rich plasma preincubated for 5 mins followed by aggregation inducer addition and measured after 5 mins by light transmission aggregation method; assay type: functional
P2Y purinoceptor 1 [7] = target: T2, P2Y purinoceptor 1; test: Binding affinity yo human P2Y1R extracted from baculovirus infected Sf9 cells assessed as inhibition constant incubated for 30 mins
P2Y purinoceptor 2 = P2Y purinoceptor 2 (Homo sapiens, UniProt P41231); test: Antagonist activity at human P2Y2R stably expressed in 1321N1 cells assessed as UTP-induced Ca2+ accumulation preincubated with compound for 30 mins followed by UTP addition by […]; assay type: functional, cell-based
P2Y purinoceptor 14 = target: T3, P2Y purinoceptor 14 (Homo sapiens, UniProt Q15391); test: Binding affinity to P2Y14R (unknown origin) expressed in CHO cells assessed as inhibition constant; assay type: cell-based
T3 sequence (Q15391 whole entry): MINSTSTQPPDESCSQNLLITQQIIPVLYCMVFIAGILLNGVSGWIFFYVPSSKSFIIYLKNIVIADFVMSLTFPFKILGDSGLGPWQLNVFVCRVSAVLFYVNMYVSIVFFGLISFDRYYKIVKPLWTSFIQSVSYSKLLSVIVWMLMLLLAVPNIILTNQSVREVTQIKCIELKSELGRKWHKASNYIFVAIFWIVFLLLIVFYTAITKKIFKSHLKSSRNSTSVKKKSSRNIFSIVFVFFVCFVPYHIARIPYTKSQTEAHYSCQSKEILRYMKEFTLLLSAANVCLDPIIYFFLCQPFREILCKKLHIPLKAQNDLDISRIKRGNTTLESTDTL

T1 sequence (Q9H244 whole entry): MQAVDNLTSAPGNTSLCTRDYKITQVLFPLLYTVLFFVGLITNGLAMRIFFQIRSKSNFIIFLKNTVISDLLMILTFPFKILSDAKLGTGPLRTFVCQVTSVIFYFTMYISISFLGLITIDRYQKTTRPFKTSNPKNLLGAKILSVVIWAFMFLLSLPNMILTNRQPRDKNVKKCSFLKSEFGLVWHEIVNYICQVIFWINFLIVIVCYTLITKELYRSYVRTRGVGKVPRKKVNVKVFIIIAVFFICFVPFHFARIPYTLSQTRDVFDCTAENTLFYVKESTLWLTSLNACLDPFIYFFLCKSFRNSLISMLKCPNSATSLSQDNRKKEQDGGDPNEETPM
T2 sequence (P47900 whole entry): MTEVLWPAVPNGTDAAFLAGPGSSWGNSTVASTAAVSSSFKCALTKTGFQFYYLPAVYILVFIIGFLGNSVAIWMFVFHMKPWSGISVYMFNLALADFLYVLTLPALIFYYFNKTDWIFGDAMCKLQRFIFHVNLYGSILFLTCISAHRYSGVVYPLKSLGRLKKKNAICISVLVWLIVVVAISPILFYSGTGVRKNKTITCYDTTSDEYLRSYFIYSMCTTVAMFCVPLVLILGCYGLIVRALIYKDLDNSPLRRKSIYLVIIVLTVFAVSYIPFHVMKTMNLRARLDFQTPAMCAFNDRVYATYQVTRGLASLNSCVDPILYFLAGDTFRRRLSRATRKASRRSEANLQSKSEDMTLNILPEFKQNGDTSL
Sequence of P2Y purinoceptor 2 (P41231 whole entry): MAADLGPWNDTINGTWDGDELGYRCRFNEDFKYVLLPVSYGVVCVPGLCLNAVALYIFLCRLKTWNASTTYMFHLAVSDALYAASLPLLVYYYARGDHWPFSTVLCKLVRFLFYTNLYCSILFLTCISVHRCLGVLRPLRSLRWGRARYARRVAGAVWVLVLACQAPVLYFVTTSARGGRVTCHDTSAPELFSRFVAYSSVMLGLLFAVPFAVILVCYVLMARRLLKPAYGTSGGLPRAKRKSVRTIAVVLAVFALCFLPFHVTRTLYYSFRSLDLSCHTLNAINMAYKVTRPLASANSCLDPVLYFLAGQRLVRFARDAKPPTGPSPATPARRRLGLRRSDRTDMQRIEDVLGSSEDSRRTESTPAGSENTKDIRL

IC50 [1]: 12.8 nM
SMILES: O=C(O)c1cc(-c2ccc(-c3cn([C@@H]4O[C@H](CO)[C@@H](O)[C@H](O)[C@H]4O)nn3)cc2)c2ccc(-c3ccc(C(F)(F)F)cc3)cc2c1

IC50 (P2Y purinoceptor 12 [2]): 290 nM
SMILES: CCOC(=O)N1CCN(C(=O)[C@H](CCC(=O)O)NC(=O)c2cc(OC(C)(C)C(=O)O)c3ccc(C)cc3n2)CC1

IC50 [1]: 5.12 nM
SMILES: CC(NC(=O)C(C)c1ccc(-c2ccccc2)c(F)c1)C(=O)O (stereo not drawn)

IC50 (P2Y purinoceptor 1 [3]): 1100 nM
SMILES: Cc1nc(/N=N/c2cc([N+](=O)[O-])ccc2Cl)c(COP(=O)(O)O)c(C=O)c1O

IC50 (P2Y purinoceptor 12 [4]): < 10 µM
SMILES: CNc1cc2[nH]c(=O)n(-c3ccc(NC(=O)NS(=O)(=O)c4ccc(Cl)s4)cc3)c(=O)c2cc1F [ELINOGREL]

Kd (P2Y purinoceptor 12 [5]): 1.5 nM
IC50 [6]: 14 nM
SMILES: CCCCOC(=O)N1CCN(C(=O)[C@H](CP(=O)(O)O)NC(=O)c2cc(N3CC[C@H](OC)C3)nc(-c3ccccc3)n2)CC1 [SELATOGREL]

Ki (P2Y purinoceptor 1 [7]): 0.79 nM
SMILES: CNc1nc(I)nc2c1ncn2[C@H]1C[C@H](OP(=O)(O)O)[C@]2(COP(=O)(O)O)C[C@H]12

IC50 (P2Y purinoceptor 2): 10.9 µM
SMILES: Cc1cc(O)c(C2=Nc3cc(C(F)(F)F)ccc3SC(c3cccc(O)c3)C2)c(=O)o1 (stereo not drawn)

IC50 [1]: 2.4 nM
SMILES: O=C(O)c1cc(-c2ccc(C3CCN(CCc4cn([C@@H]5O[C@H](CO)[C@@H](O)[C@H](O)[C@H]5O)nn4)CC3)cc2)c2ccc(-c3ccc(C(F)(F)F)cc3)cc2c1

IC50 (P2Y purinoceptor 1 [3]): 660 nM
SMILES: Cc1nc(/N=N/c2ccc(Cl)c([N+](=O)[O-])c2)c(COP(=O)(O)O)c(C=O)c1O

IC50 (P2Y purinoceptor 12 [2]): 97 nM
SMILES: CCOC(=O)N1CCN(C(=O)[C@H](CCC(=O)O)NC(=O)c2cc(OC(C)(C)C(=O)OCC)c3ccc(C)cc3n2)CC1

Ki (P2Y purinoceptor 14): 0.08 nM
SMILES: N=C1C=CC2=C(c3ccc(C(=O)NCCCCCCn4cc(CCCCN5CCC(c6ccc(-c7cc(C(=O)O)cc8cc(-c9ccc(C(F)(F)F)cc9)ccc78)cc6)CC5)nn4)cc3C(=O)O)C3C=CC(N)=C(S(=O)(=O)O)C3OC2C1S(=O)(=O)O (stereo not drawn)
